Assay results: patent US20050096327A1, “Novel norepinephrine reuptake inhibitors for the treatment of central nervous system disorders” (priority 2003, published 2005)
Counter-ions that a name gives are not always drawn.

Legend:
[1] = target: T1, human norepinephrine transporter (Homo sapiens, UniProt P23975); assay: hNET receptor binding ([125I]-RTI-55, membranes of transfected HEK-293 cells); conditions: 50 pM [125I]-RTI-55, 90 min room temperature; IC50 converted by Cheng-Prusoff
T1 construct: host or cells: HEK-293
In short: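 Competition binding on membranes from HEK-293 cells transfected with human NET, using 50 pM [125I]-RTI-55 in Krebs-HEPES pH 7.4, drug 10^−5 to 10^−12 M in duplicate, 90 min at room temperature, filtration. Nonspecific binding defined with 10 μM desipramine; IC50 converted to Ki by Cheng-Prusoff.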

T1 sequence (P23975 whole entry): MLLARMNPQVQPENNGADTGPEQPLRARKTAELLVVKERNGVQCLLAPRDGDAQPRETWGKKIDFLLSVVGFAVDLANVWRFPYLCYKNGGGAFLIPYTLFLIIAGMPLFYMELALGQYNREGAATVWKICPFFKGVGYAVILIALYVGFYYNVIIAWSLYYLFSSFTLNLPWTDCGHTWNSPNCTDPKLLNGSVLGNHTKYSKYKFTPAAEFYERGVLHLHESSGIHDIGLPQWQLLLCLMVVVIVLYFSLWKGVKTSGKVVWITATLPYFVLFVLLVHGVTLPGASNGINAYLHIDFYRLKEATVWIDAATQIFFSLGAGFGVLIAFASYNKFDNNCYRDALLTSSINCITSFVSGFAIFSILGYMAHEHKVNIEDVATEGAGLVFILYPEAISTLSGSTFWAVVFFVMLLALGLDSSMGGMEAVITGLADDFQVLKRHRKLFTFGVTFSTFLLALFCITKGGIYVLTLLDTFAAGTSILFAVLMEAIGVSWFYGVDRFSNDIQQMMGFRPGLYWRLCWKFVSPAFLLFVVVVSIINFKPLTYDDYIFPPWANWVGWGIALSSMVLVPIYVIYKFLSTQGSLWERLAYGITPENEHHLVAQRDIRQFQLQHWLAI

Row | Compound | melting point | Ki [1]
1 | Fc1ccc(-c2nc(N3CCNCC3)nc3ccccc23)c(Cl)c1 (as salt: salt) [Example 61, 4-(2-Chloro-4-fluoro-phenyl)-2-piperazin-1-yl-quinazoline] | 248 to 251 °C | 
2 | c1ccc(-c2nc(N3CC4CNCC4C3)nc3ccccc23)cc1 (centres unmarked) (as salt: salt) [Example 81, 2-(Hexahydro-pyrrolo[3,4-c]pyrrol-2-yl)-4-phenyl-quinazoline] | 267 to 270 °C | 
3 | Cc1ccc(-c2nc(N3CCN(C)CC3)nc3ccccc23)cc1 [Example 2, 2-(4-Methyl-piperazin-1-yl)-4-p-tolyl-quinazoline] | 85 to 87 °C | 77.3 nM
4 | Cc1ccccc1-c1nc(N2CCN(C)CC2)nc2ccccc12 [Example 4, 2-(4-Methyl-piperazin-1-yl)-4-o-tolyl-quinazoline] | 91 to 94 °C | 34.1 nM
5 | CN1CC2CCCC(C1)N2c1nc(-c2ccccc2)c2ccccc2n1 [Example 5, 2-(3-Methyl-3,9-diaza-bicyclo[3.3.1]non-9-yl)-4-phenyl-quinazoline] | 118 to 121 °C | 42 nM
6 | CC(C)c1nc(N2CCNCC2)nc2ccccc12.Cl [Example 6, 4-Isopropyl-2-piperazin-1-yl-quinazoline hydrochloride] | 253 to 254 °C | 16.5 nM
7 | CC(C)c1nc(N2CCCNCC2)nc2ccccc12.Cl [Example 8, 2-[1,4]Diazepan-1-yl-4-isopropyl-quinazoline hydrochloride] | 193 to 194 °C | 4.8 nM
8 | CN1CCN(c2nc(-c3ccccc3F)c3ccccc3n2)CC1 [Example 18, 4-(2-Fluoro-phenyl)-2-(4-methyl-piperazin-1-yl)-quinazoline] | 123 to 124 °C | 12 nM
9 | Cl.Fc1ccccc1-c1nc(N2CCCNCC2)nc2ccccc12 [Example 21, 2-[1,4]Diazepan-1-yl-4-(2-fluoro-phenyl)-quinazoline hydrochloride] | 190 to 192 °C | 3.7 nM
10 | CN1CCN(c2nc(-c3ccc(F)cc3)c3ccccc3n2)CC1 [Example 25, 4-(4-Fluoro-phenyl)-2-(4-methyl-piperazin-1-yl)-quinazoline] | 130 to 131 °C | 82 nM
11 | CN1CCN(c2nc(-c3cccc(F)c3)c3ccccc3n2)CC1 [Example 26, 4-(3-Fluoro-phenyl)-2-(4-methyl-piperazin-1-yl)-quinazoline] | 134 to 135 °C | 34.9 nM
12 | CN1CCN(c2nc(-c3cccs3)c3ccccc3n2)CC1.O=C(O)C(=O)O [Example 27, 2-(4-Methyl-piperazin-1-yl)-4-thiophen-2-yl-quinazoline oxalate] | 216 to 217 °C | 67.4 nM
13 | Cl.c1ccc(-c2nc(N3CC4CCCC(C3)N4)nc3ccccc23)cc1 [Example 32, 2-(3,9-Diaza-bicyclo[3.3.1]non-3-yl)-4-phenyl-quinazoline hydrochloride] | > 300 °C | 38.5 nM
14 | Cl.Fc1cccc(Cl)c1-c1nc(N2CCNCC2)nc2ccccc12 [Example 36, 4-(2-Chloro-6-fluoro-phenyl)-2-piperazin-1-yl-quinazoline hydrochloride] | 266 to 268 °C | 4 nM
15 | Cl.Fc1cccc(-c2nc(N3CCNCC3)nc3ccccc23)c1F [Example 37, 4-(2,3-Difluoro-phenyl)-2-piperazin-1-yl-quinazoline hydrochloride] | 273 to 276 °C | 3 nM
16 | Cl.N[C@H]1CCCN(c2nc(-c3ccccc3F)c3ccccc3n2)C1 [Example 40, (S)-(+)-1-[4-(2-Fluoro-phenyl)-quinazolin-2-yl]-piperidin-3-ylamine hydrochloride] | 288 to 289 °C | 18 nM
17 | COC(=O)C1(c2nc(-c3ccccc3)c3ccccc3n2)CCNCC1.Cl [Example 50, 4-(4-Phenyl-quinazolin-2-yl)piperidine-4-carboxylic acid methyl ester hydrochloride] | 227 to 228 °C | 9.8 nM

More lines, now with the values ahead:

Row | melting point | Ki [1] | Compound
18 | 241 to 242 °C |  | C[C@@H]1CN(c2nc(-c3ccccc3)c3ccccc3n2)CCN1 (as salt: salt) [Example 31, (R)-(+)-2-(3-Methyl-piperazin-1-yl)-4-phenyl-quinazoline]
19 | 231 to 232 °C |  | Cl.c1ccc(-c2nc(C3CCCNC3)nc3ccccc23)cc1 (centres unmarked) (hydrate or solvate)
20 | 101 to 122 °C | 29.7 nM | CN1CCN(c2nc(-c3ccccc3)c3ccccc3n2)CC1 [Example 1, 2-(4-Methyl-piperazin-1-yl)-4-phenyl-quinazoline]
21 | 230 to 231 °C | 2 nM | Cl.c1ccc(-c2nc(N3CCCNCC3)nc3ccccc23)cc1 [Example 7, 2-[1,4]Diazepan-1-yl-4-phenyl-quinazoline hydrochloride]
22 | 221 to 222 °C | 22 nM | CC1CN(c2nc(-c3ccccc3)c3ccccc3n2)C(C)CN1.Cl (centres unmarked) [Example 9, 2-(2,5-Dimethyl-piperazin-1-yl)-4-phenyl-quinazoline hydrochloride]
23 | 86 to 88 °C | 80.5 nM | Cl.NCCC1CCCN(c2nc(-c3ccccc3)c3ccccc3n2)C1 (centres unmarked) [Example 11, 2-[1-(4-Phenyl-quinazolin-2-yl)-piperidin-3-yl]-ethylamine hydrochloride]
24 | > 300 °C | 95.5 nM | Cl.NC1CCN(c2nc(-c3ccccc3)c3ccccc3n2)CC1 [Example 12, 1-(4-Phenyl-quinazolin-2-yl)-piperidin-4-ylamine hydrochloride]
25 | 274 to 275 °C | 3.7 nM | Cl.N[C@H]1CCN(c2nc(-c3ccccc3)c3ccccc3n2)C1 [Example 14, (S)-(+)-1-(4-Phenyl-quinazolin-2-yl)-pyrrolidin-3-ylamine hydrochloride]
26 | 154 to 157 °C | 4.6 nM | C[C@H]1CNCCN1c1nc(-c2ccccc2)c2ccccc2n1.Cl [Example 15, (S)-(+)-2-(2-Methyl-piperazin-1-yl)-4-phenyl-quinazoline hydrochloride]
27 | 261 to 265 °C | 31 nM | Cl.N[C@@H]1CCN(c2nc(-c3ccccc3)c3ccccc3n2)C1 [Example 16, (R)-(−)1-(4-Phenyl-quinazolin-2-yl)-pyrrolidin-3-yl-amine hydrochloride]
28 | 150 to 161 °C | 5.5 nM | C[C@@H]1CNCCN1c1nc(-c2ccccc2)c2ccccc2n1.Cl [Example 30, (R)-(−)-2-(2-Methyl-piperazin-1-yl)-4-phenyl-quinazoline hydrochloride]
29 | 285 to 287 °C | 3.8 nM | Cl.N[C@H]1CCN(c2nc(-c3ccccc3F)c3ccccc3n2)C1 [Example 34, (S)-(+)-1-[4-(2-Fluoro-phenyl)-quinazolin-2-yl]-pyrrolidin-3-ylamine hydrochloride]
30 | 270 to 278 °C | 41 nM | Cl.Fc1ccccc1-c1nc(N2CC3CNCC3C2)nc2ccccc12 (centres unmarked) [Example 39, 4-(2-Fluoro-phenyl)-2-(hexahydro-pyrrolo[3,4-c]pyrrol-2-yl)-quinazoline hydrochloride]
